Source: patent US20140287460A1, “PRODUCTION OF R[…] IN INSECT CELLS USING A B[…]” (GBIOTECH SARL, priority 2011, published 2014)

Tests used:
[1] = system: bMON14272-pFastbac Dual infected SF21 cells; experiment: Baculovirus virion suppression test, end point dilution assay, negative control virus (Example 2); type: cell-based; details: addition of 0.5 μM RG-102240, SF21 cells, 72 hours, FIG. 7B right
Text: FIG. 7: Example 2. A) Generation of composite baculovirus DNA containing expression cassettes X, Y, and Z as described in FIG. 6. Baculovirus DNA bMON14272 (left) contains expression cassette Z encoding native vp80 protein. The transfer vector pE2 (right) contains expression cassettes X and Y encoding the ecdysone activator protein and shRNA, respectively. In transfer vector pE2, direction of transcription 5′ to 3′ for expression cassettes X and Y is indicated by arrows. Promoter sequences pe38 for ecdysone activator and ie-2 minimal for shRNA are indicated as are the DNA binding sites for ecdysone activator protein. Fusion of the transfer vector pE2 and bMON14272 is carried out by Tn7 transposition (indicated by the dashed cross). B) Comparison of budded infectious virus production from inducible bMON14272-pE2 (left) and non-inducible bMON14272-pDual (right) in the presence and absence of inducer molecule RG-102240. Baculovirus infected SF21 cells are incubated for 72 hours in the presence, or absence of 0.5 μM RG-102240 (indicated by + or −, bottom). […]
(§1) Quantification of effectiveness of RG-102240-mediated suppression of generation of baculovirus virion through shRNA targeting of the essential virus capsid protein vp80 as described above is carried out by comparing the results of the end point dilution assay with and without RG-102240-mediated expression of shRNA. […]

[2] = system: bMON14272-pE2 infected SF21 cells; experiment: Baculovirus virion suppression test, end point dilution assay (Example 2); type: cell-based
Text: FIG. 7: Example 2. A) Generation of composite baculovirus DNA containing expression cassettes X, Y, and Z as described in FIG. 6. Baculovirus DNA bMON14272 (left) contains expression cassette Z encoding native vp80 protein. The transfer vector pE2 (right) contains expression cassettes X and Y encoding the ecdysone activator protein and shRNA, respectively. In transfer vector pE2, direction of transcription 5′ to 3′ for expression cassettes X and Y is indicated by arrows. Promoter sequences pe38 for ecdysone activator and ie-2 minimal for shRNA are indicated as are the DNA binding sites for ecdysone activator protein. Fusion of the transfer vector pE2 and bMON14272 is carried out by Tn7 transposition (indicated by the dashed cross). B) Comparison of budded infectious virus production from inducible bMON14272-pE2 (left) and non-inducible bMON14272-pDual (right) in the presence and absence of inducer molecule RG-102240. Baculovirus infected SF21 cells are incubated for 72 hours in the presence, or absence of 0.5 μM RG-102240 (indicated by + or −, bottom). […] S.E.M of three measurements is indicated by dark bars on the top of the graphs.
Other algorithms may be analogously used. […] Expression cassette Y is under control of the ie2 minimal promoter (Protein Expression and Purification 42, 236-245).
Baculovirus virion suppression tests are carried out as follows. 10 milliliters of SF21 cells in suspension culture (Nature Methods 3, 1021-1032) at density 0.5×10^6 cells/ml are infected at multiplicity of infection (M.O.I) of 1.0 with either bMON14272-pE2 or bMON14272-pFastbac Dual initial transfection virus either in the presence, or absence of 0.5 μM RG-102240 (FIG. 7B). […]
as §1

[3] = induced with 0.5 μM RG-102240, SF21 cells, 72 hours

CCc1c(OC)cccc1C(=O)NN(C(=O)c1cc(C)cc(C)c1)C(C)(C)C [RG-102240]
effect on baculovirus virion production [1]: no statistically significant effect
reduction of virus titers relative to prior art systems (bMON14272-pFastbac Dual) [2, 3]: more than three fold
reduction of virus titers relative to uninduced bMON14272-pE2 [2, 3]: more than three fold
levels of budded virus production (infectious virus titre) ([2]; presence vs absence of 0.5 μM RG-102240, SF21 cells, M.O.I 1.0, 72 hours, FIG. 7B left): significantly reduced
